Laboratory results published in patent US8481539B2, “Alkynylaryl compounds and salts thereof, pharmaceutical compositions comprising same, methods of preparing same and uses of same” (Bayer Intellectual Property GmbH, priority 2007, dated 2013).

biological target: T1, human insuline receptor (Ins-R) (Homo sapiens, UniProt P06213); assay: Insulin Receptor HTRF Assay (assay 4); assay type: biochemical; conditions: pIC50 class; 10 μM ATP; read-out: Enzymatic InsR activity (assay 4)
T1 construct: GST-tagged recombinant kinase domain of the human insuline receptor; GST; purchased ProQinase, Freiburg, Germany; host or cells: SF-9 cells
T1 sequence (P06213 1023-1298 limits assumed): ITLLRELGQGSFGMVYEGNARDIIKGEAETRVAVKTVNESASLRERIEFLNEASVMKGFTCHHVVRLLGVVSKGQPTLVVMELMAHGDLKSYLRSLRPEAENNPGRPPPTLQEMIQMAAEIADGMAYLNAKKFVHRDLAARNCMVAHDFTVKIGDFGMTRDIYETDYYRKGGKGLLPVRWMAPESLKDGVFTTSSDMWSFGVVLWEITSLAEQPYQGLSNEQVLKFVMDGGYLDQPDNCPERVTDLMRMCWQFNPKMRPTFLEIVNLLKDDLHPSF
Experimental: Assay 4: Insulin Receptor HTRF Assay
Inhibitory activity of compounds against the kinase activity of the insulin receptor was quantified employing the Ins-R HTRF assay as described in the following paragraphs.
GST-tagged recombinant kinase domain of the human insuline receptor (Ins-R, purchase from ProQinase, Freiburg, Germany) expressed in SF-9 cells was used as kinase. As substrate for the kinase reaction biotinylated poly-(Glu, Tyr) (Cis biointernational, France) was used.
Ins-R was incubated for 20 min at 22° C. in the presence of different concentrations of test compounds in 5 μl assay buffer [50 mM Hepes/NaOH pH 7, 15 mM MnCl2, 1 mM dithiothreitol, 0.1 μM sodium ortho-vanadate, 0.015% (v/v) PEG20000, 10 μM adenosine-tri-phosphate (ATP), 0.3 μg/ml substrate, 1% (v/v) dimethylsulfoxide]. The concentration of Ins-R was adjusted depending of the activity of the enzyme lot and was chosen appropriate to have the assay in the linear range, typical concentrations were in the range of 10 pg/μl. The reaction was stopped by the addition of 5 μl of a solution of HTRF detection reagents (0.1 μM streptavidine-XLent and 1 nM PT66-Eu-Chelate, an europium-chelate labelled anti-phospho-tyrosine antibody from Perkin Elmer) in an aqueous EDTA-solution (80 mM EDTA, 0.2% (w/v) bovine serum albumin in 50 mM HEPES/NaOH pH 7.0).
The resulting mixture was incubated 1 h at 22° C. to allow the binding of the biotinylated phosphorylated peptide to the streptavidine-XLent and the PT66-Eu-Chelate. Subsequently the amount of phosphorylated substrate was evaluated by measurement of the resonance energy transfer from the PT66-Eu-Chelate to the streptavidine-XLent. Therefore, the fluorescence emissions at 620 nm and 665 nm after excitation at 350 nm was measured in a HTRF reader, e.g. a Rubystar (BMG Labtechnologies, Offenburg, Germany) or a Viewlux (Perkin-Elmer). The ratio of the emissions at 665 nm and at […] was taken as the measure for the amount of phosphorylated substrate. The data were normalised (enzyme reaction without inhibitor=0% inhibition, all other assay components but no enzyme=100% inhibition) and IC50 values were calculated by a 4 parameter fit using an inhouse software.

IC50, ≥ 10 µM:
Cn1ncc2c(C#Cc3cccc(NC(=O)c4cccc(C(F)(F)F)c4)c3)cncc21 [Example 1.5, N-[3-(1-Methyl-1H-pyrazolo[3,4-c]pyridin-4-ylethynyl)-phenyl]-3-trifluoromethyl-benzamide]
Cc1ccc(NC(=O)c2cccc(C(F)(F)F)c2)cc1C#Cc1cncc2c1cnn2C [Example 1.6, N-[4-Methyl-3-(1-methyl-1H-pyrazolo[3,4-c]pyridin-4-ylethynyl)-phenyl]-3-trifluoromethyl-benzamide]
Cn1ncc2c(C#Cc3cc(NC(=O)c4cccc(C(F)(F)F)c4)ccc3F)cncc21 [Example 1.9, N-[4-Fluoro-3-(1-methyl-1H-pyrazolo[3,4-c]pyridin-4-ylethynyl)-phenyl]-3-trifluoromethyl-benzamide]
